Measured values: patent US11426402B2, “IRE1 activating compounds for use in therapy” (The Scripps Research Institute, priority 2019, dated 2022)

Key:
[1] = test system: stress-responsive signaling pathways; test: Gene Ontology and stress-responsive geneset analysis of RNAseq in HEK293T cells; format: cell-based, human
Method: (§1) Cells were lysed and total RNA collected using the RNeasy mini kit, according to manufacturer's instructions (Qiagen). Conventional RNA-seq was conducted via BGI Americas on the BGI Proprietary platform, providing single-end 50 bp reads at 20 million reads per sample. Alignment of sequencing data was done using DNAstar Lasergene SeqManPro to the GRCh37. p 13 human genome reference assembly, and assembly data were imported into ArrayStar 12.2 with QSeq (DNAStar Inc.) to quantify the gene expression levels and normalization to reads per kilobase per million (RPKM). Differential expression analysis and statistical significance calculations between different conditions was assessed using “DESeq” in R, compared to vehicle-treated cells, using a standard negative binomial fit of the RPKM data to generate Fold Change quantifications.

secreted Aβ = test: Aβ ELISA of media conditioned on CHO 7PA2 cells (V717F APP); format: cell-based; details: CHO 7PA2, 10 μM
Method: FIGS. 5A-5D. […] Cells were treated for 18 hours, media was then replaced and conditioned in the presence of treatments for 24 hours before harvesting for ELISA assay. Error bars represent SEM for n=3 replicates. Statistics calculated from one-tailed Student's t-test. *p<0.05, **p<0.01, ***p<0.001 (FIG. 5A). Quantification of media and lysate immunoblots from 474 treatment (10 μM) of APP. Error bars represent Standard Deviation for n=3 replicates. Statistics calculated from one-tailed Student's t-test. *p<0.05, **p<0.01 ***p<0.001 (FIG. 5B). Plot showing fraction of total remaining APP at each time point after S35 metabolic labeling of newly synthesized protein, accounting for the sum of APP in lysate and media. Error bars represent Standard Deviation for n=3 replicates. Statistics calculated from one-tailed Student's t-test. *p<0.05, **p<0.01, ***p<0.001 (FIG. 5C). Plot showing fraction of secreted APP collected at 2 hours after metabolic labeling. Error bars represent Standard Deviation for n=3 replicates. Statistics calculated from one-tailed Student's t-test. *p<0.05, **p<0.01, ***p<0.001 (FIG. 5D).
7PA2 or 7WD10 cells were cultured on 96-well plates (Corning) and treated with IRE1 activating compounds +/−4 μ8c overnight. The medium was then replaced at 50% volume with treatment remaing, culture medium was collected after 24 hours. The medium was analyzed by an AP ELISA as follows. Monoclonal 6E10 anti-Aβ(residues 1-17) mouse IgG1, (Biolegend) was coated in […] carbonate buffer, pH 9.6, at 4° C. overnight on high binding assay black plates (Costar), washed with TBST (tris buffered saline with 0.05% Tween 20) and blocked with 5% non-fat milk in TBST. Samples and standards (condition 7PA2 media) were incubated for 1.5 hr, followed by addition of 4G8 antibody [anti-Aβ residues 17-24, mouse IgG2b (Biolegend)] conjugated to horseradish peroxidase (hrp) and incubated for 1.5 hr at 25° C. After washing, ABM substrate was added, followed by detection with an absorbance plate reader.
ELISA was used to monitor Aβ in media conditioned on a CHO cell line stably expressing the destabilized, disease-associated V717F APP mutant (CHO^7PA2)^45 treated with or without compounds 198, 474, and 970. […] The reduction in A secretion can be attributed to IRE1 activation because the reduced extracellular accumulation of Aβ is blocked by co-treatment with the active site IRE1 inhibitor 4 μ8c (FIG. 5A).

XBP1s = test: Overlap of compound-induced genes with dox-dependent XBP1s activation in HEK293DAX cells; format: cell-based, human
Method: as §1
These cells stably express both doxycycline (dox)-inducible XBP1s and trimethoprim (TMP) regulated DHFR.ATF6, allowing stress-independent activation of XBP1s and/or ATF6 signaling through addition of the activating ligands dox or TMP, respectively^8.

ER proteostasis factors = test: RNAseq expression of 124 proteostasis factors; format: cell-based, human
Method: as §1
One of the mechanisms by which IRE1/XBP1s activation is protective is through the targeted transcriptional remodeling of ER proteostasis pathways. Because it was observed that compounds such as 474 and 970 selectively activate IRE1/XBP1s signaling, it was desired to confirm that these compounds similarly promote targeted ER proteostasis network remodeling. […]

XBP1 splicing = XBP1 splicing in wild-type and Ire1-deficient MEF cells; format: cell-based, mouse; details: for XBP1 splicing: Ire1-deficient MEF cells; for IRE1-dependent XBP1 splicing: wild-type MEF cells
Method: To amplify the spliced and unspliced XBP1 mRNA, XBP1 primers were used as described previously.^21 PCR products were electrophoresed on 2.5% agarose gel. GAPDH (forward 5′[…]3′, reverse 5′[…]3′) was used as a loading control. The size difference between the spliced and the unspliced XBP1 is 26 nucleotides.
Compounds 474, 198, and 970 were selected as exemplary hits based on their selective IRE1-depedendent induction of DNAJB9, their EC50 of XBP1-RLuc activation of <3 μM and their high maximal activation of IRE1signaling measured by both XBP1s-RLuc activity and DNAJB9 expression (>50% that observed with Tg). […] However, this splicing was not observed in Ire1-deficient MEF cells, further confirming that these compounds increase XBP1 splicing by an IRE1-dependent mechanism.

IRE1 = IRE1 (Homo sapiens, UniProt O75460); test: IRE1 phosphorylation by Phos-tag SDS-PAGE and immunoblotting in HEK293T cells; format: cell-based; details: test compound alone, 10 μM, 4 hours
Method: FIG. 3A-FIG. 3D. […] Error bars show SEM for n=3. […] Error bars show SEM for n=3. […] Error bars show SEM for n=3.
Cell lysates were prepared as previously described in RIPA buffer (50 mM Tris, pH 7.5, 150 mM NaCl, 0.1% SDS, 1% Triton X-100, 0.5% deoxycholate and protease inhibitor cocktail (Roche). Total protein concentration in cellular lysates was normalized using the Bio-Rad protein assay. Lysates were then denatured with 1× Laemmli buffer+100 mM DTT and boiled before being separated by SDS-PAGE. Samples were transferred onto nitrocellulose membranes (Bio-Rad) for immunoblotting and blocked with 5% milk in Tris-buffered saline, 0.5% Tween-20 (TBST) following incubation overnight at 4° C. with primary antibodies. Membranes were washed in TBST, incubated with IR-Dye conjugated secondary antibodies and analyzed using Odyssey Infrared Imaging System (LI-COR Biosciences). Quantification was carried out with LI-COR Image Studio software.
Compounds that activate IRE1 through binding the IRE1 kinase active site and inhibiting IRE1 autophosphorylation can elicit off-target activity likely associated with binding to other protein kinases.^20, 35, 36 Thus, the purpose of this example was to define the dependence of the present compounds on IRE1 kinase activity. HEK293T cells were treated with compound 198, 474, or 970 in the absence or presence of Tg, and IRE1 phosphorylation was monitored by using Phos-tag SDS-PAGE and immunoblotting. As a control, cells were treated with APY29—an IRE1 kinase site inhibitor that allosterically activates the IRE1 RNAse^20 in the absence or presence of Tg.

Chain of IRE1 (O75460 19-977): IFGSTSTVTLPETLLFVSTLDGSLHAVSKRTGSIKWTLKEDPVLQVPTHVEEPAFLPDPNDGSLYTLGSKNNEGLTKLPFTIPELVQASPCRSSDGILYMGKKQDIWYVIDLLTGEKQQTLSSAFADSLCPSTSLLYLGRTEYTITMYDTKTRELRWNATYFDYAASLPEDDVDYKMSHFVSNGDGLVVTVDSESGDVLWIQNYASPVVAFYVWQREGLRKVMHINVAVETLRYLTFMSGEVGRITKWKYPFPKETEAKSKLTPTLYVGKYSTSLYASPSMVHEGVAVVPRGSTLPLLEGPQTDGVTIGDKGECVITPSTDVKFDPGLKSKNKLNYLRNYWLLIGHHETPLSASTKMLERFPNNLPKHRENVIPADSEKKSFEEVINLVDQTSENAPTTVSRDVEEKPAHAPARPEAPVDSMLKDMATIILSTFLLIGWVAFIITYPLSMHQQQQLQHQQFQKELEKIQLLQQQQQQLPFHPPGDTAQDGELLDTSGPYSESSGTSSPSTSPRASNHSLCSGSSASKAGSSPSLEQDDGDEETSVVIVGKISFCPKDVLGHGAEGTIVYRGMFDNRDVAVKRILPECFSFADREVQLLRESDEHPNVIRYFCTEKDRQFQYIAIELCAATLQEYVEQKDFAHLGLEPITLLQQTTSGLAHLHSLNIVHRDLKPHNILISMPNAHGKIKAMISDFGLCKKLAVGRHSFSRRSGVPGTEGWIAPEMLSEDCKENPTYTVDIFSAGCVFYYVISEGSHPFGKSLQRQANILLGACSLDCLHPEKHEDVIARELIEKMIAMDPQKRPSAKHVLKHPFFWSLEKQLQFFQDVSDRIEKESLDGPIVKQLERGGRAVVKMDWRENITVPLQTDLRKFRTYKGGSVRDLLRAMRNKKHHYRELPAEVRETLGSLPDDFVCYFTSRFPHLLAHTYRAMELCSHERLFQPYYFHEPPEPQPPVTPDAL

SMILES	Gene Ontology analysis of induced genes [1]	activation of other stress responsive signaling pathways apart from IRE1/XBP1s [1]	Aβ in conditioned media relative to control conditioned media (secreted Aβ) [%]	overlap of genes induced >1.2 fold with dox-dependent XBP1s activation (XBP1s)	top 100 induced genes overlapping with genes induced by dox-dependent XBP1s activation (XBP1s)	remodeling of ER proteostasis factors relative to other compartments (ER proteostasis factors)	XBP1 splicing (XBP1 splicing)	IRE1-dependent XBP1 splicing (XBP1 splicing)	phosphorylated IRE1 (IRE1)	induction of most non-overlapping genes (XBP1s) [fold]
Cc1ccc(OCCN(C)C(=O)Cn2cc(NC(=O)CCOc3ccccc3)cn2)cc1 [Compound 474]	primarily induce expression of genes annotated with GO terms related to ER stress and the UPR	do not significantly activate	50	> 80%	majority	selective remodeling	not observed	increased	increased phosphorylated IRE1	
O=C(CN(Cc1ccc(Cl)cc1)S(=O)(=O)c1cccnc1)N1CCc2ccccc21 [Compound 970]	primarily induce expression of genes annotated with GO terms related to ER stress and the UPR	do not significantly activate	50	> 60%	majority	selective remodeling	not observed	increased	increased phosphorylated IRE1	< 1.3
CCOC(CNC(=O)C1CCCN(Cc2nc(-c3ccc(Cl)cc3)oc2C)C1)OCC (centres unmarked) [Compound 198]	primarily induce expression of genes annotated with GO terms related to ER stress and the UPR	to a lesser extent	50	less overlap			not observed	increased	increased phosphorylated IRE1	
